Where a name gives a salt, the structure may show the parent alone.
Biological target: PAI-1 (Homo sapiens, UniProt P05121)
Assay: biochemical
Conditions: for inhibition at 20 µM: 20 μM (third part of Table 1); for inhibition at 20 µM / inhibition at 50 µM / inhibition at 100 µM: read-out: Degree of inhibition in PAI chromogenic substrate assay; for inhibition at 50 µM: 50 μM (third part of Table 1); for inhibition at 100 µM: 100 μM (third part of Table 1)
Experimental: In this assay, a compound is incubated with PAI-1 prior to addition to the tPA assay system. Inhibition of PAI-1 results in the production of plasmin from plasminogen. In turn, plasmin cleaves the chromogenic substrate S2251 (Kabi Vitrum) producing pNA (p-nitroaniline) which is detected spectrophotometrically at 405 nm (K. Nilsson et al, Fibrinolysis (1987) 1, 163-168).
Compounds of formula (A) were tested in a PAI chromogenic substrate assay. In the assay (K.Nilsson, Fibrinolysis (1987) 1, 163-168) each compound was incubated with PAI-1 prior to addition to the tPA assay system. […] In turn, the plasmin cleaved the chromogenic substrate S2251 (Kabi-Vitrum) producing pNA (p-nitroaniline) which was detected spectrophotometrically at 405 nm.

Sequence of PAI-1 (P05121 24-402): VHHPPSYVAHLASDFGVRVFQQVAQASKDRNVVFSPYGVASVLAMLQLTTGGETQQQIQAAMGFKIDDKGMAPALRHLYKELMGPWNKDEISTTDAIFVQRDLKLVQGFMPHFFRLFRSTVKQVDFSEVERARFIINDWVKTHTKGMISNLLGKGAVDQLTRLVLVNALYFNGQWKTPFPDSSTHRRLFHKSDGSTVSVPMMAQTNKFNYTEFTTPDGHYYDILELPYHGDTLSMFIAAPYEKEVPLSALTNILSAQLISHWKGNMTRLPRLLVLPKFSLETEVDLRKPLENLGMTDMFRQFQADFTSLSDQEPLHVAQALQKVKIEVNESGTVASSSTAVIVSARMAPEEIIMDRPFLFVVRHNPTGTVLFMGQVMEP

CN(C)CCOc1ccc(/C=c2\[nH]c(=O)/c(=C/c3ccccc3)[nH]c2=O)c(Cl)c1 [Compound 1951, (3Z,6Z)-3-Benzylidene-6-(2-chloro-4-(2-dimethylaminoethoxy)benzylidene)-2,5-piperazinedione]
Degree of inhibition in PAI chromogenic substrate assay (6.25 μM): 0%
Degree of inhibition in PAI chromogenic substrate assay (12.5 μM): 1%
Degree of inhibition in PAI chromogenic substrate assay (25 μM): 2%
Degree of inhibition in PAI chromogenic substrate assay (50 μM): 23%
Degree of inhibition in PAI chromogenic substrate assay (100 μM): 43%

CN(C)CCCOc1ccc(/C=c2\[nH]c(=O)/c(=C/c3ccc(C(=O)NCCc4ccccc4)cc3)[nH]c2=O)cc1 [Compound 5345, N-Phenethyl-4-((3Z,6Z)-6-(4-(3-Dimethylaminopropoxy)benzylidene)-2,5-dioxo-3-piperazinylidene)methylbenzamide]
inhibition at 20 µM: 39%

CN(C)CCSCc1ccc(/C=c2\[nH]c(=O)/c(=C/c3ccccc3Br)[nH]c2=O)cc1 [Compound 5080.HCl, (3Z,6Z)-3-(2-Bromobenzylidene)-6-(4-(2-Dimethylaminoethylthiomethyl)benzylidene)-2,5-piperazinedione]
inhibition at 20 µM: 10%
inhibition at 50 µM: 48%
inhibition at 100 µM: 62%

CN(C)CCOc1ccc(/C=c2\[nH]c(=O)/c(=C/c3ccccc3)[nH]c2=O)cc1OCCN(C)C [Compound 1978, (3Z,6Z)-6-Benzylidene-3-(3,4-di-(2-dimethylaminoethoxy)benzylidene)-2,5-piperazinedione]
Degree of inhibition in PAI chromogenic substrate assay (6.25 μM): 3%
Degree of inhibition in PAI chromogenic substrate assay (12.5 μM): 0%
Degree of inhibition in PAI chromogenic substrate assay (25 μM): 11%
Degree of inhibition in PAI chromogenic substrate assay (50 μM): 41%
Degree of inhibition in PAI chromogenic substrate assay (100 μM): 50%

CN(C)CCSCc1ccc(/C=c2\[nH]c(=O)/c(=C/c3ccccc3)[nH]c2=O)cc1 [Compound 5058, (3Z,6Z)-6-Benzylidene-3-(4-(2-Dimethylaminoethylthiomethyl)benzylidene)-2,5-piperazinedione]
inhibition at 20 µM: 75%
inhibition at 50 µM: 68%
inhibition at 100 µM: 67%

COC(=O)c1ccc(/C=c2\[nH]c(=O)/c(=C/c3ccc(OCCCN(C)C)cc3)[nH]c2=O)cc1 [Compound 5401, Methyl 4((3Z,6Z)-6-(4-(3-Dimethylaminopropoxy)benzylidene)-2,5-dioxo-3-piperazinylidene)methylbenzoate]
inhibition at 20 µM: 42%
